# Measurements from patent US9943599B2, “Therapeutic applications of calcium electroporation to effectively induce tumor necrosis” (Herlev Hospital, priority 2011, dated 2018).
# Like-named read-outs stand apart in the source and are kept apart here.
# Legend:
# [1] = tested on: H69 (human small cell lung cancer) tumors; assay: Histology, fraction of necrosis in H69 tumors; type: in vivo, NMRI-Foxn1^nu mice
# Experimental: At an average tumor size of 6.1 mm (range 5.8-6.6 mm) in largest diameter, the tumors are treated with 168 mM CaCl2 injection and electroporation as described in Example 3. Tumors are removed at skin level before treatment, 2 hours, 1, 2 and 6 days after treatment, fixated in formalin (10% neutrally buffered) and paraffin embedded. Subsequently, tissue sections with a thickness of 3 μm are HE-stained according to the routine procedure of the department. The fraction of necrosis within the tumor is estimated from HE-sections by stereological point counting using a light microscope, evaluated by a pathologist, blinded with respect to treatment status.
# The difference in fraction of necrosis is assessed using one-way ANOVA with post least-squares-means test with Bonferroni correction for multiple comparisons.
# [2] = tested on: B16 (murine melanoma) tumors; assay: Fraction of necrosis after calcium electroporation, B16 tumors; type: in vivo, NMRI-Foxn1^nu mice; conditions: 168 mM CaCl2, half tumor volume, first days after treatment
# Experimental: LPB, a murine sarcoma cell line, B16, a murine malignant melanoma cell line, MDA-MB231, human a breast cancer cell line, HT29, a human colon cancer cell line, and SW780, a human bladder cancer cell line were used for the in vivo experiment. The cells were tested by rapid MAP27 panel (Taconic, Hudson N.Y.) before use without signs of infection. 2×10^5 cells (B16), 8×10^5 cells (LPB), 2.5×10^6 cells (MDA-MB231), and 5×10^6 cells (HT29 and SW780) in 100 μl PBS were injected subcutaneously in the flank of NMRI-Foxn1^nu mice (Harlan, Indianapolis, Ind.) that were 9-11 weeks old. Mice were randomised at a tumor volume above 85 mm^3 and tumors were treated with injection of isotonic calcium-chloride solution (168 mM CaCI2) and electroporation (8 pulses of 1.0 kv/cm for 100 μs and a frequency of 1 Hz) using a 6 mm plate electrode and a square wave electroporator (CLINIPORATOR®, IGEA, Modena, Italy). Tumor volume was calculated as ab^2n/6, where a is the largest diameter and b is the largest diameter perpendicular to a. The injected volume was half of the tumor volume. […] The fraction of necrosis within the tumor was estimated from HE-sections by stereological point counting using a light microscope, evaluated by a pathologist, blinded with respect to treatment status.
# The difference in fraction of necrosis at different time after treatment was assessed using student's t-test.
# [3] = tested on: N32 (rat brain glioma) tumors; assay: Calcium electroporation of brain tumor, MRI and H&E; type: in vivo, Sprague Dawley rats
# Experimental: N32, a rat brain glioma derived tumor cell line, and 7-11 weeks old Sprague Dawley male rats (Taconic, Hudson N.Y.) were used for the in vivo experiments. The cells were tested by rapid MAP27 panel (Taconic, Hudson N.Y.) before use without signs of infection. Inoculation of 3,000 N32 cells in 5 μl at the stereotaxic coordinates; X=2, Y=1, Z=−4 was performed and verification of tumor by MRI prior to treatment was performed two weeks after inoculation. HYPNORM™-DORMICUM™ (fentanyl/fluanisone/midazolam; VetaPharma, Leeds, U K and Roche, Basel, Switzerland) was used for anesthesia complemented with RIMADYL® (Carprofen) (Pfizer ApS, Ballerup, Denmark) for pain relief after surgery. Tumors were treated two weeks after inoculation with 1) injection of 14 μl calcium-chloride solution (168 mM) and electroporation (32 pulses of 100V for 100 μs and a frequency of 1 Hz) using an 8-electrode device developed for treatment of brain tumors, a square wave electroporator (CLINIPORATOR®, IGEA, Modena, Italy), and a switch box (Sonion), or 2) injection of 14 μl calcium-chloride solution (168 mM) and placement of electrodes but no pulses applied. MRI was performed at day 1, 3, 6, and 8 after treatment. […] The extend of necrosis, the presence of macrophages and the influence on neurons and glia cells were evaluated by H&E, PAS, NF, and GFAP staining, respectively.
# [4] = tested on: DC-3F, K-562 and Lewis Lung Carcinoma cells; assay: In vitro electroporation, MTT viability assay; type: cell-based, Chinese hamster, human, murine
# Experimental: Three cell lines are used for in vitro experiments, DC-3F, a transformed Chinese hamster lung fibroblast cell line; K-562, a human leukemia cell line; and Lewis Lung Carcinoma, a murine lung carcinoma cell line. DC-3F cells were tested for mycoplasma in January 2011, K-562 cells were tested for mycoplasma in 2008 prior to freezing and thawing just before experiments were performed, and Lewis Lung cells were tested by rapid MAP27 panel (Taconic, Hudson N.Y.) in July 2011 without signs of infection. Cells are maintained in RPMI 1640 culture medium (GIBCO™, Life Technologies, Carlsbad, Calif.) with 10% fetal calf serum (GIBCO™, Life Technologies, Carlsbad, Calif.), penicillin and streptomycin at 37° C. and 5% C02. After harvesting, cells are washed and diluted in HEPES buffer containing 10 mM HEPES (Lonza, Basel, Switzerland), 250 mM sucrose and 1 mM MgCl2 in sterile water. 270 μl cell suspension (6.1×10^6 cells/ml) and 30 μl CaCl2, or in the case of controls, HEPES buffer, are electroporated in 4 mm wide cuvettes with aluminium electrodes (Molecular BioProducts, Inc., San Diego, Calif.). Cooled cells (8° C.) are exposed to 8 pulses of 1.2 kV/cm with pulse duration of 99 μs (DC-3F and K562 cells) or 8 pulses of 1.4 kV/cm with pulse duration of 99 μs (Lewis Lung Carcinoma) using a BTX® T820 square wave electroporator (BTX®, Harvard Apparatus, Holliston, Mass.). The electroporation parameters are chosen after optimization to obtain high permabilisation and cell survival. After 20 min at 37° C. and 5% CO2 cells are diluted in RPMI 1640 culture medium with 10% fetal calf serum and penicillin-streptomycin and seeded in 96-well plates at a concentration of 3.1×10^4 cells/100 μl.
# Difference between electroporated and non-electroporated cells in identical buffer is assessed using two-way analysis of variance (ANOVA) with post least-squares-means test with Bonferroni correction for multiple comparisons.
smiles,measurement,setting,value
[Ca+2].[Cl-].[Cl-] [calcium chloride],"fraction of necrosis in tumors, course","[1]; 168 mM CaCl2 with electroporation, 2 hours to 6 days",progressive necrosis
same,fraction of necrosis in tumors,[1]; 6 days post treatment,complete
same,"fraction of necrosis in tumors, course",[2],progressive necrosis
same,"tumor size (MRI, H&E)","[3]; 14 μl 168 mM calcium alone, no pulses, 6 days after the treatment",no effect on tumor size
same,"tumor (MRI, H&E)","[3]; 14 μl 168 mM calcium chloride with electroporation (32 pulses 100V), 8 days after the treatment",eliminated
same,EC50,"[4]; all electroporated cell lines, 8 pulses 1.2-1.4 kV/cm, 99 μs, MTT 1 and 2 days after treatment, read-out: EC50 (decrease in viability)",570 µM
same,lowest concentration inducing high cell death,[4]; electroporated,1 mM
same,calcium concentration from which viability decreases significantly (p<0.01),"[4]; electroporated, all cell lines",≥ 0.5 mM
same,cell death after calcium electroporation,"[4]; electroporated, all three cell lines",dose dependent cell death
same,effect on cell viability,"[4]; non-electroporated cells, high calcium concentrations",no effect on cell viability
same,EC50,"[4]; range over the electroporated cell lines, read-out: EC50 range (decrease in viability)",350 to 790 µM
same,EC50 (decrease in viability),[4]; without electroporation,not reached
